Laboratory results published in ChEMBL document CHEMBL1125454, “Synthesis and evaluation of a new series of mechanism-based aromatase inhibitors” (J Med Chem, 1992).
“And” between values parts separate entries of the source, which are not always exact repeats. Equal entries are not always repeated.

How the values were obtained:
[1] = kinact was determined.; format: ADME
Aromatase [2] = molecular target: T1, Aromatase (Homo sapiens, UniProt P11511); test: Inhibition of Cytochrome P450 19A1
T1 sequence (P11511 whole entry): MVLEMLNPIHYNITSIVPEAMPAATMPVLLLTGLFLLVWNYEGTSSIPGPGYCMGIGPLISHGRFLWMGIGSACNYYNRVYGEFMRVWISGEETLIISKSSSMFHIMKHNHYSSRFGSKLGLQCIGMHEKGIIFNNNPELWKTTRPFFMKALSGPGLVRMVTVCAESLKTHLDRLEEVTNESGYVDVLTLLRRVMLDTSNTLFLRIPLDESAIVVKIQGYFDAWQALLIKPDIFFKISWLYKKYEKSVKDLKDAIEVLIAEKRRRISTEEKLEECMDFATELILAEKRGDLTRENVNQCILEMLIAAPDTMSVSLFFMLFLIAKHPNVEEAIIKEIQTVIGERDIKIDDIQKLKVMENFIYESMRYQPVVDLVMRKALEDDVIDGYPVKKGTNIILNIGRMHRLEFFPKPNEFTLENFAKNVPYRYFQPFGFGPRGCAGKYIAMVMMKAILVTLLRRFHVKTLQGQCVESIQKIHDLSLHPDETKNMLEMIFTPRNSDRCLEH

Aromatase [3] = molecular target: T1, Aromatase; test: Inhibition constant for human placental Cytochrome P450 19A1
Aromatase [4] = molecular target: T1, Aromatase; test: Inhibition of cytochrome P450 19A1
Aromatase [5] = molecular target: T1, Aromatase; test: Inhibition constant for human placental cytochrome P450 19A1
[6] = Half-life period of the compound; NTD = Not time dependent; format: ADME
[7] = kinact was determined; NTD = Not time dependent; format: ADME
Aromatase [8] = molecular target: T1, Aromatase; test: Percent cytochrome P450 19A1 activity remaining after pretreatment with 0.5 uM androstenedione (t=0 control)
Aromatase [9] = molecular target: T1, Aromatase; test: Percent cytochrome P450 19A1 activity remaining after pretreatment with 1 uM androstenedione (t=0 control)
Aromatase [10] = molecular target: T1, Aromatase; test: Percent cytochrome P450 19A1 activity remaining after 10 minute pretreatment with 0.5 uM androstenedione
Aromatase [11] = molecular target: T1, Aromatase; test: Percent cytochrome P450 19A1 activity remaining after 10 minute pretreatment with 1 uM androstenedione
Aromatase [12] = molecular target: T1, Aromatase; test: Percent cytochrome P450 19A1 activity remaining after 5 minute pretreatment with 0.5 uM androstenedione
Aromatase [13] = molecular target: T1, Aromatase; test: Percent cytochrome P450 19A1 activity remaining after 5 minute pretreatment with 10 mM beta-mercaptoethanol
Aromatase [14] = molecular target: T1, Aromatase; test: Percent cytochrome P450 19A1 activity remaining after 5 minute pretreatment with 1 uM androstenedione
Aromatase [15] = molecular target: T1, Aromatase; test: Percent cytochrome P450 19A1 activity remaining after 10 minute pretreatment with 0.5 mM beta-mercaptoethanol

SMILES: C[C@]12CCC(=O)C(SCF)=C1CCC1C2CC[C@]2(C)C(=O)CCC12 (stereo partly specified)
- K inact [1]: 3.1 10e-3 s-1
- IC50 (Aromatase [2]): 800 nM
- Ki (Aromatase [3]): 30 nM

SMILES: C[C@]12CCC(=O)C(O)=C1CC[C@@H]1[C@@H]2CC[C@]2(C)C(=O)CC[C@@H]12 [FORMESTANE]
- K inact [1]: 2.3 10e-3 s-1
- IC50 (Aromatase [4]): 370 nM
- Ki (Aromatase [5]): 27 nM

SMILES: C[C@]12CCC(=O)C(O)=C1CCC1C2=CC[C@]2(C)C(=O)CCC12 (stereo partly specified)
- IC50 (Aromatase [4]): 350 nM

SMILES: C[C@]12CCC(=O)C(SC(F)F)=C1CC[C@@H]1[C@@H]2CC[C@]2(C)C(=O)CC[C@@H]12
- T1/2 [6]: Not time-dependent
- IC50 (Aromatase [4]): 2700 nM
- K inact [7]: Not time-dependent

SMILES: C[C@]12CCC(=O)C(SCC#N)=C1CC[C@@H]1[C@@H]2CC[C@]2(C)C(=O)CC[C@@H]12
- K inact [1]: 1.2 10e-3 s-1
- IC50 (Aromatase [2]): 3700 nM
- Ki (Aromatase [3]): 169 nM

SMILES: C[C@]12CCC(=O)C(SCCl)=C1CCC1C2=CC[C@]2(C)C(=O)CCC12 (stereo partly specified)
- K inact [1]: 4.8 10e-3 s-1
- IC50 (Aromatase [4]): 860 nM
- Ki (Aromatase [5]): 27 nM

SMILES: CSC1=C2CCC3C(CC[C@]4(C)C(=O)CCC34)[C@@]2(C)CCC1=O (stereo partly specified)
- T1/2 [6]: Not time-dependent
- IC50 (Aromatase [4]): 4400 nM
- K inact [7]: Not time-dependent

SMILES: CSCSC1=C2CCC3C(CC[C@]4(C)C(=O)CCC34)[C@@]2(C)CCC1=O (stereo partly specified)
- T1/2 [6]: Not time-dependent
- IC50 (Aromatase [4]): 1200 nM
- K inact [7]: Not time-dependent

SMILES: C[C@]12CCC(=O)C(SCCl)=C1CCC1C2CC[C@]2(C)C(=O)CCC12 (stereo partly specified)
- K inact [1]: 3.8 10e-3 s-1
- Activity (Aromatase [8]): 49%
- IC50 (Aromatase [4]): 940 nM
- Activity (Aromatase [9]): 9.8%
- Activity (Aromatase [10]): 36.5% and 46%
- Activity (Aromatase [11]): 10.2%
- Activity (Aromatase [12]): 70%
- Activity (Aromatase [13]): 5%
- Activity (Aromatase [14]): 32% and 36.8%
- Activity (Aromatase [15]): 59%
- Ki (Aromatase [5]): 30 nM

SMILES: COCOC1=C2CCC3C(CC[C@]4(C)C(=O)CCC34)[C@@]2(C)CCC1=O (stereo partly specified)
- K inact [1]: Not time-dependent
- IC50 (Aromatase [4]): 4400 nM

SMILES: C[C@]12CCC(=O)C(S)=C1CCC1C2CC[C@]2(C)C(=O)CCC12 (stereo partly specified)
- IC50 (Aromatase [2]): 3500 nM

SMILES: C[C@]12CCC(=O)C(S)=C1CCC1C2=CC[C@]2(C)C(=O)CCC12 (stereo partly specified)
- K inact [1]: 3.9 10e-3 s-1
- IC50 (Aromatase [4]): 3800 nM
- Ki (Aromatase [5]): 72 nM

SMILES: COCSC1=C2CCC3C(CC[C@]4(C)C(=O)CCC34)[C@@]2(C)CCC1=O (stereo partly specified)
- K inact [1]: Not time-dependent
- IC50 (Aromatase [4]): 10000 nM
